# Experimental data published in ChEMBL document CHEMBL3526091, “Pharmacokinetics, metabolism, and excretion of the glycogen synthase kinase-3 inhibitor LY2090314 in rats, dogs, and humans: a case study in rapid clearance by extensive metabolism with low circulating metabolite exposure” (Drug Metab Dispos, 2013).
# Experiments:
# [1] = Tmax in cancer patient at 120 mg for 60 mins treated 1/8 cycle/day; type: ADME, organism-based; parameters: dosed compound name LY2090314; conditions: human, in vivo
# [2] = tested on: Rattus norvegicus; experiment: Total drug recovery in bile duct-cannulated Sprague-Dawley rat at 5 mg/kg, iv administered for 30 mins during 0 to 12 hrs time interval by radio analysis; type: ADME, organism-based; parameters: dose 5 mg/kg, dosed compound name [14C]LY2090314, route intravenous; conditions: in vivo
# [3] = Drug recovery in Sprague-Dawley rat feces at 5 mg/kg, iv administered for 30 mins during 0 to 168 hrs time interval by radio analysis; type: ADME, organism-based; parameters: dose 5 mg/kg, dosed compound name [14C]LY2090314, route intravenous; conditions: in vivo
# [4] = Drug recovery in Sprague-Dawley rat feces at 5 mg/kg, iv administered for 30 mins during 0 to 24 hrs time interval by radio analysis; type: ADME, organism-based; parameters: dose 5 mg/kg, dosed compound name [14C]LY2090314, route intravenous; conditions: in vivo
# [5] = Drug recovery in Sprague-Dawley rat urine at 5 mg/kg, iv administered for 30 mins during 0 to 24 hrs time interval by radio analysis; type: ADME, organism-based; parameters: dose 5 mg/kg, dosed compound name [14C]LY2090314, route intravenous; conditions: in vivo
# [6] = Drug recovery in bile duct-cannulated Sprague-Dawley rat feces at 5 mg/kg, iv administered for 30 mins during 0 to 168 hrs time interval by radio analysis; type: ADME, organism-based; parameters: dose 5 mg/kg, dosed compound name [14C]LY2090314, route intravenous; conditions: in vivo
# [7] = Clearance in cancer patient at 20 mg for 60 mins treated 2/1 cycle/day; type: ADME, organism-based; parameters: dosed compound name LY2090314; conditions: human, in vivo
# [8] = Clearance in cancer patient at 40 mg for 60 mins treated 1/1 cycle/day; type: ADME, organism-based; parameters: dosed compound name LY2090314; conditions: human, in vivo
# [9] = tested on: Plasma; experiment: Plasma concentration in beagle dog at Tmax; type: ADME, cell-free, Canis lupus familiaris; parameters: dosed compound name [14C]LY2090314
# [10] = Drug metabolism in Mdr1a knockout Sprague-Dawley rat urine at 5 mg/kg, iv administered for 30 mins; type: ADME, organism-based; parameters: dose 5 mg/kg, dosed compound name LY2090314, route intravenous; conditions: in vivo, 0.5 h
# [11] = Cmax in cancer patient at 120 mg for 60 mins treated 1/8 cycle/day; type: ADME, organism-based; parameters: dose 120 mg, dosed compound name LY2090314; conditions: human, in vivo
# [12] = Tmax in cancer patient at 20 mg for 60 mins treated 1/1 cycle/day; type: ADME, organism-based; parameters: dosed compound name LY2090314; conditions: human, in vivo
# [13] = Tmax in cancer patient at 80 mg for 60 mins treated 1/8 cycle/day; type: ADME, organism-based; parameters: dosed compound name LY2090314; conditions: human, in vivo
# [14] = Half life in cancer patient at 80 mg for 60 mins treated 1/8 cycle/day; type: ADME, organism-based; parameters: dosed compound name LY2090314; conditions: human, in vivo
# [15] = tested on: Rattus norvegicus; experiment: Volume of distribution at steady state in Sprague-Dawley rat assessed as total radioactivity at 5 mg/kg, iv administered for 30 mins; type: ADME, organism-based; parameters: dose 5 mg/kg, dosed compound name [14C]LY2090314, route intravenous; conditions: in vivo, 0.5 h
# [16] = Volume of distribution at steady state in cancer patient at 80 mg for 60 mins treated 1/1 cycle/day; type: ADME, organism-based; parameters: dosed compound name LY2090314; conditions: human, in vivo, read-out: Vdss
# [17] = Cmax in cancer patient at 120 mg for 60 mins treated 1/1 cycle/day; type: ADME, organism-based; parameters: dose 120 mg, dosed compound name LY2090314; conditions: human, in vivo
# [18] = tested on: Rattus norvegicus; experiment: Elimination half life in Sprague-Dawley rat assessed as total radioactivity at 5 mg/kg, iv administered for 30 mins; type: ADME, organism-based; parameters: dose 5 mg/kg, dosed compound name [14C]LY2090314, route intravenous; conditions: in vivo, 0.5 h
# [19] = AUC (0 to infinity) in cancer patient at 40 mg for 60 mins treated 1/8 cycle/day; type: ADME, organism-based; parameters: dose 40 mg, time infinity, dosed compound name LY2090314; conditions: human, plasma
# [20] = Drug recovery in beagle dog feces at 5 mg/kg, iv administered for 30 mins during 0 to 168 hrs time interval by radio analysis; type: ADME, organism-based, Canis lupus familiaris; parameters: dose 5 mg/kg, dosed compound name [14C]LY2090314, route intravenous; conditions: in vivo
# [21] = Tmax in cancer patient at 20 mg for 60 mins treated 2/1 cycle/day; type: ADME, organism-based; parameters: dosed compound name LY2090314; conditions: human, in vivo
# [22] = tested on: Plasma; experiment: Plasma concentration in beagle dog at 5 mg/kg, iv administered for 30 mins; type: ADME, organism-based, Canis lupus familiaris; parameters: dose 5 mg/kg, dosed compound name [14C]LY2090314, route intravenous; conditions: in vivo, 0.5 h
# [23] = Cmax in cancer patient at 40 mg for 60 mins treated 1/8 cycle/day; type: ADME, organism-based; parameters: dose 40 mg, dosed compound name LY2090314; conditions: human, in vivo
# [24] = Drug metabolism in Mdr1a knockout Sprague-Dawley rat bile at 5 mg/kg, iv administered for 30 mins; type: ADME, organism-based; parameters: dose 5 mg/kg, dosed compound name LY2090314, route intravenous; conditions: in vivo, 0.5 h
# [25] = tested on: Canis familiaris; experiment: Elimination half life in beagle dog assessed as total radioactivity at 5 mg/kg, iv administered for 30 mins; type: ADME, organism-based, Canis lupus familiaris; parameters: dose 5 mg/kg, dosed compound name [14C]LY2090314, route intravenous; conditions: in vivo, 0.5 h
# [26] = Clearance in cancer patient at 10 mg for 60 mins treated 2/1 cycle/day; type: ADME, organism-based; parameters: dosed compound name LY2090314; conditions: human, in vivo
# [27] = Clearance in cancer patient kidney at 80 to 120 mg for 60 mins; type: ADME, organism-based; parameters: dosed compound name LY2090314; conditions: human, in vivo
# [28] = Volume of distribution at steady state in cancer patient at 10 mg for 60 mins treated 2/1 cycle/day; type: ADME, organism-based; parameters: dosed compound name LY2090314; conditions: human, in vivo, read-out: Vdss
# [29] = Drug recovery in bile duct-intact Sprague-Dawley rat assessed as radioactivity in feces during 0 to 24 hrs at 5 mg/kg, iv for 30 mins; type: ADME, organism-based; parameters: dose 5 mg/kg, dosed compound name [14C]LY2090314, route intravenous; conditions: in vivo
# [30] = tested on: Canis familiaris; experiment: AUC (0 to infinity) in beagle dog assessed as total radioactivity at 5 mg/kg, iv administered for 30 mins; type: ADME, organism-based, Canis lupus familiaris, Plasma; parameters: dose 5 mg/kg, dosed compound name [14C]LY2090314, route intravenous, time infinity; conditions: in vivo, 0.5 h
# [31] = Clearance in cancer patient at 80 mg for 60 mins treated 1/1 cycle/day; type: ADME, organism-based; parameters: dosed compound name LY2090314; conditions: human, in vivo
# [32] = Volume of distribution at steady state in cancer patient at 60 mg for 60 mins treated 1/8 cycle/day; type: ADME, organism-based; parameters: dosed compound name LY2090314; conditions: human, in vivo, read-out: Vdss
# [33] = Clearance in cancer patient at 60 mg for 60 mins treated 1/8 cycle/day; type: ADME, organism-based; parameters: dosed compound name LY2090314; conditions: human, in vivo
# [34] = Clearance in cancer patient at 10 mg for 60 mins treated 1/1 cycle/day; type: ADME, organism-based; parameters: dosed compound name LY2090314; conditions: human, in vivo
# [35] = tested on: Canis familiaris; experiment: Volume of distribution at steady state in beagle dog assessed as total radioactivity at 5 mg/kg, iv administered for 30 mins; type: ADME, organism-based, Canis lupus familiaris; parameters: dose 5 mg/kg, dosed compound name [14C]LY2090314, route intravenous; conditions: in vivo, 0.5 h
# [36] = AUC (0 to infinity) in cancer patient at 60 mg for 60 mins treated 1/1 cycle/day; type: ADME, organism-based; parameters: dose 60 mg, time infinity, dosed compound name LY2090314; conditions: human, plasma
# [37] = Cmax in cancer patient at 40 mg for 60 mins treated 1/1 cycle/day; type: ADME, organism-based; parameters: dose 40 mg, dosed compound name LY2090314; conditions: human, in vivo
# [38] = tested on: Rattus norvegicus; experiment: Drug recovery in Sprague-Dawley rat cage at 5 mg/kg, iv administered for 30 mins during 0 to 24 hrs time interval by radio analysis; type: ADME, organism-based; parameters: dose 5 mg/kg, dosed compound name [14C]LY2090314, route intravenous; conditions: in vivo
# [39] = tested on: Plasma; experiment: Drug metabolism in Mrp2 knockout Sprague-Dawley rat plasma at 5 mg/kg, iv administered for 30 mins; type: ADME, organism-based; parameters: dose 5 mg/kg, dosed compound name LY2090314, route intravenous; conditions: in vivo, 0.5 h
# [40] = Drug recovery in bile duct-cannulated Sprague-Dawley rat cage/carcass at 5 mg/kg, iv administered for 30 mins during 0 to 168 hrs time interval by radio analysis; type: ADME, organism-based; parameters: dose 5 mg/kg, dosed compound name [14C]LY2090314, route intravenous; conditions: in vivo
# [41] = Drug metabolism in Bcrp knockout Sprague-Dawley rat bile at 5 mg/kg, iv administered for 30 mins; type: ADME, organism-based; parameters: dose 5 mg/kg, dosed compound name LY2090314, route intravenous; conditions: in vivo, 0.5 h
# [42] = Volume of distribution at steady state in cancer patient at 120 mg for 60 mins treated 1/8 cycle/day; type: ADME, organism-based; parameters: dosed compound name LY2090314; conditions: human, in vivo, read-out: Vdss
# [43] = tested on: Rattus norvegicus; experiment: Drug recovery in Sprague-Dawley rat cage at 5 mg/kg, iv administered for 30 mins during 0 to 168 hrs time interval by radio analysis; type: ADME, organism-based; parameters: dose 5 mg/kg, dosed compound name [14C]LY2090314, route intravenous; conditions: in vivo
# [44] = Tmax in cancer patient at 10 mg for 60 mins treated 1/1 cycle/day; type: ADME, organism-based; parameters: dosed compound name LY2090314; conditions: human, in vivo
# [45] = Drug recovery in beagle dog urine at 5 mg/kg, iv administered for 30 mins during 0 to 12 hrs by radio analysis; type: ADME, organism-based, Canis lupus familiaris; parameters: dose 5 mg/kg, dosed compound name [14C]LY2090314, route intravenous; conditions: in vivo
smiles,measurement,setting,value
O=C1NC(=O)C(c2cnc3ccccn23)=C1c1cn2c3c(cc(F)cc13)CN(C(=O)N1CCCCC1)CC2 [LY-2090314],Tmax,[1],30 min
same,Radiolabel recovery,[2],87%
same,Radiolabel recovery,[3],96.7%
same,Radiolabel recovery,[4],91.8%
same,Radiolabel recovery,[5],0.73%
same,Radiolabel recovery,[6],6.75%
same,clearance,[7],825 mL/min
same,clearance,[8],688 mL/min
same,Compound recovery,[9],82.8%
same,Drug metabolism,[10],metabolite_detected
same,Cmax,[11],768 ng/mL
same,Tmax,[12],58.8 min
same,Tmax,[13],58.8 min
same,half-life,[14],156 min
same,Vdss,[15],4.489 L/kg
same,Vd,[16],86.3 L
same,Cmax,[17],1700 ng/mL
same,beta t1/2,[18],435 min
same,AUC(0-inf),[19],938 ng·h/mL
same,Radiolabel recovery,[20],69.2%
same,Tmax,[21],45 min
same,Compound recovery,[22],21.4%
same,Cmax,[23],657 ng/mL
same,Drug metabolism,[24],metabolite_detected
same,beta t1/2,[25],73.6 h
same,clearance,[26],870 mL/min
same,CL renal at 1 h,[27],14.2 mL/min
same,Vd,[28],101 L
same,Radiolabel recovery,[29],2.43%
same,AUC,[30],15067 ng·h/mL
same,clearance,[31],747 mL/min
same,Vd,[32],67.5 L
same,clearance,[33],633 mL/min
same,clearance,[34],787 mL/min
same,Vdss,[35],9.84 L/kg
same,AUC(0-inf),[36],1600 ng·h/mL
same,Cmax,[37],603 ng/mL
same,Radiolabel recovery,[38],0.07%
same,Drug metabolism,[39],metabolite_not_detected
same,Radiolabel recovery,[40],0.31%
same,Drug metabolism,[41],metabolite_detected
same,Vd,[42],143 L
same,Radiolabel recovery,[43],0.14%
same,Tmax,[44],57 min
same,Radiolabel recovery,[45],0.35%
